Patent US9365566B2 (Takeda Pharmaceutical Company Limited, priority 2012, dated 2016)

Target: T1, human BTK (Homo sapiens, UniProt Q06187)
T1 construct: GST (Glutathione-S-Transferase) (cleaved yes); made in house; host or cells: Spodoptera frugiperda Sf9 cells (baculovirus, Bac-to-Bac)
Assay: BTK inhibition assay: BTK-mediated phosphorylation of FAM-labeled substrate 5-FAM-EEPLYWSFPAKKK-NH2 (Caliper LC-3000)
Type: biochemical
Conditions: pIC50 = -log(IC50), IC50 molar; residues 382 to 659 of human BTK; incubated at room temperature for 60 minutes; larger values represent higher potency
Excerpt: The activity of compounds as BTK inhibitors may be determined by a variety of methods, including in vitro and in vivo methods.
This construct engineers an in-frame translational fusion with the Glutathione-S-Transferase (GST) protein for use in affinity purification. The fusion protein derived from this construct contains a protease recognition sequence to liberate the BTK from the GST affinity tag. High-titer baculoviral stocks, generated using the Bac-to-Bac® system (Invitrogen), are used to express the recombinant protein in Spodoptera frugiperda Sf9 cells in 10 L Wave bags. Recombinant proteins are isolated from cellular extracts by passage over Glutathione Sepharose 4B (GE Healthcare) and the BTK moiety is released from the GST affinity tag by treatment with PreScission protease. The BTK recombinant protein is further purified by size exclusion chromatography (HiLoad 16/60 Superdex 200, GE Healthcare) in a buffer containing 20 mM Hepes (pH 7.4), 50 mM NaCl, 10 mM MgCl2, 0.25 mM TCEP and 0.1 mM EDTA. The purity of the fractions is assessed by SDS PAGE and the peak protein fractions are pooled and concentrated using Amicon Ultra-15 Centrifugal Filter Devices (Millipore).
The inhibitory properties of compounds relative to BTK is determined using a black 384-well-plate format in a buffer which contains 50 mM Hepes, 10 mM NaCl, 10 mM MgCl2, 0.2 mM EDTA, 0.01% Brij35®, 1 mM DTT, and 0.1 mg/mL BSA at pH 7.3. The test compound is prepared in DMSO using 2-fold serial dilutions for 11 data points, which are added to the buffer so that each dilution contains 3% DMSO. […] The reaction mixtures are incubated at room temperature for 60 minutes and then quenched by adding 25 μL of 50 mM EDTA. To quantify the fluorescent-labeled substrate and product following reaction, the test plate is loaded on a Caliper LC-3000, which measures percent of conversion by microfluidic-based separation.
The compounds were tested in accordance with the assay described on page 34 of the specification.

T1 sequence (Q06187 382-659): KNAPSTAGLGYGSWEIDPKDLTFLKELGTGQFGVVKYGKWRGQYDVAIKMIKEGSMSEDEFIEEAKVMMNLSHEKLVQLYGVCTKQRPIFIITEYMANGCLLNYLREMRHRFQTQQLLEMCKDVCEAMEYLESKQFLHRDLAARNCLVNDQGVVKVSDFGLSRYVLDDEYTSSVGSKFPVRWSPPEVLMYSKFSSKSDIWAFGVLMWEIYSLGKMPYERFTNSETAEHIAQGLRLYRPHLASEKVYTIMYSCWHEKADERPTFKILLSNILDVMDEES

IC50 [nM] | SMILES
39.8 | Cc1cc(C)cc(-c2nc3ccc(-c4cccc5c(N)c(C(N)=O)nnc45)cc3[nH]2)c1 [Example 80, 4-amino-8-(2-(3,5-dimethylphenyl)-1H-benzo[d]imidazol-6-yl)cinnoline-3-carboxamide]
10 | Cc1cc2cn[nH]c2cc1-c1cc(F)cc2c(N)c(C(N)=O)nnc12 [Example 136, 4-amino-6-fluoro-8-(5-methyl-1H-indazol-6-yl)cinnoline-3-carboxamide]
7.94 | Cc1ccc2c(N)c(C(N)=O)nnc2c1-c1ccc2cn[nH]c2c1 [Example 28, 4-amino-8-(1H-indazol-6-yl)-7-methylcinnoline-3-carboxamide]
39.8 | Cc1c(-c2cccc3c(N)c(C(N)=O)nnc23)ccc2[nH]ncc12 [Example 31, 4-amino-8-(4-methyl-1H-indazol-5-yl)cinnoline-3-carboxamide]
100 | Cc1ccc2c(N)c(C(N)=O)nnc2c1-c1cnc2ncn(C)c2c1 [Example 97, 4-amino-7-methyl-8-(1-methyl-1H-imidazo[4,5-b]pyridin-6-yl)cinnoline-3-carboxamide]
1000 | NC(=O)c1nnc2c(N3CCc4cn[nH]c4C3)cccc2c1N [Example 85, 4-amino-8-(4,5-dihydro-1H-pyrazolo[3,4-c]pyridin-6(7H)-yl)cinnoline-3-carboxamide]
2 | COc1cc2cn[nH]c2cc1-c1ccc(F)c2c(N)c(C(N)=O)nnc12 [Example 111, 4-amino-5-fluoro-8-(5-methoxy-1H-indazol-6-yl)cinnoline-3-carboxamide]
31.6 | NC(=O)c1nnc2c(-c3ccc4nc(CCc5ccccc5)[nH]c4c3)cccc2c1N [Example 69, 4-amino-8-(2-phenethyl-1H-benzo[d]imidazol-6-yl)cinnoline-3-carboxamide]
79.4 | CC(C)(C)c1ccc(-c2nc3ccc(-c4cccc5c(N)c(C(N)=O)nnc45)cc3[nH]2)cc1 [Example 117, 4-amino-8-(2-(4-tert-butylphenyl)-1H-benzo[d]imidazol-6-yl)cinnoline-3-carboxamide]
1000 | Cn1cc2cc(-c3cccc4c(N)c(C(N)=O)nnc34)ccc2n1 [Example 11, 4-amino-8-(2-methyl-2H-indazol-5-yl)cinnoline-3-carboxamide]
1260 | CCn1cnc2cc(-c3c(C)ccc4c(N)c(C(N)=O)nnc34)ccc21 [Example 132, 4-amino-8-(1-ethyl-1H-benzo[d]imidazol-5-yl)-7-methylcinnoline-3-carboxamide]
100 | Cc1ccc2c(N)c(C(N)=O)nnc2c1-c1ccc2[nH]nc(C)c2c1 [Example 50, 4-amino-7-methyl-8-(3-methyl-1H-indazol-5-yl)cinnoline-3-carboxamide]
200 | Cc1ccc2c(N)c(C(N)=O)nnc2c1-c1ccc2ccncc2c1 [Example 57, 4-amino-8-(isoquinolin-7-yl)-7-methylcinnoline-3-carboxamide]
1580 | NC(=O)c1nnc2c(-c3ccc4[nH]ccc4c3)cccc2c1N [Example 27, 4-amino-8-(1H-indol-5-yl)cinnoline-3-carboxamide]
126 | N#Cc1ccc2c(N)c(C(N)=O)nnc2c1-c1ccc2cn[nH]c2c1 [Example 135, 4-amino-7-cyano-8-(1H-indazol-6-yl)cinnoline-3-carboxamide]
39.8 | Cc1cc2c(cnn2C)cc1-c1cccc2c(N)c(C(N)=O)nnc12 [Example 55, 4-amino-8-(1,6-dimethyl-1H-indazol-5-yl)cinnoline-3-carboxamide]
126 | Cc1ccc2c(N)c(C(N)=O)nnc2c1-c1cnc2cc[nH]c2c1 [Example 21, 4-amino-7-methyl-8-(1H-pyrrolo[3,2-b]pyridin-6-yl)cinnoline-3-carboxamide]
39800 | NC(=O)c1nnc2c(-c3ccc4c(c3)NC(=O)C4)cccc2c1N [Example 20, 4-amino-8-(2-oxoindolin-6-yl)cinnoline-3-carboxamide]
200 | N#Cc1nc2ccc(-c3cccc4c(N)c(C(N)=O)nnc34)cc2[nH]1 [Example 130, 4-amino-8-(2-cyano-1H-benzo[d]imidazol-6-yl)cinnoline-3-carboxamide]
63.1 | NC(=O)c1nnc2c(-c3ccc4nc(NCC5CC5)[nH]c4c3)cccc2c1N [Example 65, 4-amino-8-(2-((cyclopropylmethyl)amino)-1H-benzo[d]imidazol-6-yl)cinnoline-3-carboxamide]

IC50 [nM] | SMILES
631 | NC(=O)c1nnc2c(-c3ccc4nc(Cc5ccccc5)[nH]c4c3)cccc2c1N [Example 77, 4-amino-8-(2-benzyl-1H-benzo[d]imidazol-6-yl)cinnoline-3-carboxamide]
158 | Cc1ccc2c(N)c(C(N)=O)nnc2c1-c1ccc2c(C#N)n[nH]c2c1 [Example 96, 4-amino-8-(3-cyano-1H-indazol-6-yl)-7-methylcinnoline-3-carboxamide]
25.1 | Cc1ccc2c(N)c(C(N)=O)nnc2c1-c1ccc2c(c1)CCNC2=O [Example 63, 4-amino-7-methyl-8-(1-oxo-1,2,3,4-tetrahydroisoquinolin-6-yl)cinnoline-3-carboxamide]
5.01 | CCc1ccc2c(N)c(C(N)=O)nnc2c1-c1ccc2[nH]ncc2c1 [Example 62, 4-amino-7-ethyl-8-(1H-indazol-5-yl)cinnoline-3-carboxamide]
3160 | NC(=O)c1nnc2c(-c3cc(F)c4c(c3)CC(=O)N4)cccc2c1N [Example 6, 4-amino-8-(7-fluoro-2-oxoindolin-5-yl)cinnoline-3-carboxamide]
1260 | NC(=O)c1nnc2c(-c3ccc4c(c3)CC(=O)N4)cccc2c1N [Example 8, 4-amino-8-(2-oxoindolin-5-yl)cinnoline-3-carboxamide]
1260 | NC(=O)c1nnc2c(-c3ccc4nc(C5CCCC5)[nH]c4c3)cccc2c1N [Example 72, 4-amino-8-(2-cyclopentyl-1H-benzo[d]imidazol-6-yl)cinnoline-3-carboxamide]
39.8 | COc1ccc(-c2ccc3cn[nH]c3c2)c2nnc(C(N)=O)c(N)c12 [Example 38, 4-amino-8-(1H-indazol-6-yl)-5-methoxycinnoline-3-carboxamide]
200 | NC(=O)c1nnc2c(-c3ccc4nc(-c5cncs5)[nH]c4c3)cccc2c1N [Example 82, 4-amino-8-(2-(thiazol-5-yl)-1H-benzo[d]imidazol-6-yl)cinnoline-3-carboxamide]
7.94 | Cc1ccc2c(N)c(C(N)=O)nnc2c1-c1ccc2c(c1)CN(CCC(C)(C)O)C2=O [Example 128, 4-amino-8-(2-(3-hydroxy-3-methylbutyl)-1-oxoisoindolin-5-yl)-7-methylcinnoline-3-carboxamide]
20 | Cc1ccc2c(N)c(C(N)=O)nnc2c1-c1ccc2[nH]nnc2c1 [Example 48, 4-amino-8-(1H-benzo[d][1,2,3]triazol-5-yl)-7-methylcinnoline-3-carboxamide]
10 | Cc1cc2[nH]ncc2cc1-c1cccc2c(N)c(C(N)=O)nnc12 [Example 49, 4-amino-8-(6-methyl-1H-indazol-5-yl)cinnoline-3-carboxamide]
3980 | Cn1ccc2cc(-c3cccc4c(N)c(C(N)=O)nnc34)ccc21 [Example 5, 4-amino-8-(1-methyl-1H-indol-5-yl)cinnoline-3-carboxamide]
1000 | Cn1ccc2ccc(-c3cccc4c(N)c(C(N)=O)nnc34)cc21 [Example 9, 4-amino-8-(1-methyl-1H-indol-6-yl)cinnoline-3-carboxamide]
631 | NC(=O)c1nnc2c(-c3ccc4[nH]c(=O)[nH]c4c3)cccc2c1N [Example 14, 4-amino-8-(2-oxo-2,3-dihydro-1H-benzo[d]imidazol-5-yl)cinnoline-3-carboxamide]
316 | NC(=O)c1nnc2c(-c3ccc4nc(-c5cccc(C(F)(F)F)c5)[nH]c4c3)cccc2c1N [Example 71, 4-amino-8-(2-(3-(trifluoromethyl)phenyl)-1H-benzo[d]imidazol-6-yl)cinnoline-3-carboxamide]
316 | Cc1c(-c2cccc3c(N)c(C(N)=O)nnc23)ccc2c1cnn2C [Example 30, 4-amino-8-(1,4-dimethyl-1H-indazol-5-yl)cinnoline-3-carboxamide]
5010 | Cc1ccc2c(N)c(C(N)=O)nnc2c1-c1cnc2c(c1)ncn2C [Example 98, 4-amino-7-methyl-8-(3-methyl-3H-imidazo[4,5-b]pyridin-6-yl)cinnoline-3-carboxamide]
79.4 | NC(=O)c1nnc2c(-c3ccc4nc(-c5ccccc5)[nH]c4c3)cccc2c1N [Example 115, 4-amino-8-(2-phenyl-1H-benzo[d]imidazol-6-yl)cinnoline-3-carboxamide]
